Laboratory results from the NIST ThermoML archive (doi:10.1016/j.fluid.2010.01.023).
Several values for one entry are separate records, joined by “and”; a condition that tells them apart may be missing. Equal values may be shown once.

Test: xn = mol fraction of the nth substance listed
Settings: Fluid (supercritical or subcritical phases), quasistatic thermogram and barogram, x2 = 0.7393

N [ammonia] + O
Settings | thermal pressure coefficient
330.88 K, Mass density=540.25 kg/m3 | 7 kPa/K
349.52 K, Mass density=540.25 kg/m3 | 12 kPa/K
366.71 K, Mass density=540.25 kg/m3 | 17 kPa/K
397.73 K, Mass density=540.25 kg/m3 | 32 kPa/K
402.59 K, Mass density=671.23 kg/m3 | 30 kPa/K
407.37 K, Mass density=649.65 kg/m3 | 37 kPa/K
407.57 K, Mass density=649.65 kg/m3 | 37 kPa/K
407.79 K, Mass density=649.65 kg/m3 | 40 kPa/K
421.43 K, Mass density=540.25 kg/m3 | 43 kPa/K
446.89 K, Mass density=540.25 kg/m3 | 58 kPa/K
473.33 K, Mass density=540.25 kg/m3 | 77 kPa/K
478.28 K, Mass density=671.23 kg/m3 | 86 kPa/K
485.04 K, Mass density=671.23 kg/m3 | 86 kPa/K
492.71 K, Mass density=671.23 kg/m3 | 87 kPa/K
494.07 K, Mass density=540.25 kg/m3 | 97 kPa/K
498.62 K, Mass density=671.23 kg/m3 | 97 kPa/K
507.04 K, Mass density=671.23 kg/m3 | 118 kPa/K
508.36 K, Mass density=671.23 kg/m3 | 941 kPa/K
509.3 K, Mass density=649.65 kg/m3 | 106 kPa/K
509.3 K, Mass density=671.23 kg/m3 | 935 kPa/K
513.52 K, Mass density=671.23 kg/m3 | 976 kPa/K
514.53 K, Mass density=649.65 kg/m3 | 119 kPa/K
516.77 K, Mass density=540.25 kg/m3 | 116 kPa/K
517.23 K, Mass density=540.25 kg/m3 | 119 kPa/K
519.21 K, Mass density=649.65 kg/m3 | 137 kPa/K
519.86 K, Mass density=649.65 kg/m3 | 896 kPa/K
520.05 K, Mass density=649.65 kg/m3 | 897 kPa/K
520.42 K, Mass density=649.65 kg/m3 | 899 kPa/K
521.54 K, Mass density=649.65 kg/m3 | 899 kPa/K
527.01 K, Mass density=649.65 kg/m3 | 915 kPa/K
527.03 K, Mass density=456.58 kg/m3 | 125 kPa/K
530.51 K, Mass density=552.58 kg/m3 | 130 kPa/K
530.67 K, Mass density=594.32 kg/m3 | 131 kPa/K
530.98 K, Mass density=476.25 kg/m3 | 129 kPa/K
534.1 K, Mass density=594.32 kg/m3 | 139 kPa/K
536.84 K, Mass density=540.25 kg/m3 | 135 kPa/K
537.29 K, Mass density=540.25 kg/m3 | 135 kPa/K
539.15 K, Mass density=594.32 kg/m3 | 145 kPa/K
539.88 K, Mass density=552.58 kg/m3 | 138 kPa/K
540.06 K, Mass density=476.25 kg/m3 | 137 kPa/K
540.79 K, Mass density=476.25 kg/m3 | 137 kPa/K
541.46 K, Mass density=594.32 kg/m3 | 152 kPa/K
541.53 K, Mass density=456.58 kg/m3 | 139 kPa/K
542.16 K, Mass density=594.32 kg/m3 | 153 kPa/K
544.61 K, Mass density=594.32 kg/m3 | 158 kPa/K
545.26 K, Mass density=594.32 kg/m3 | 161 kPa/K
546.16 K, Mass density=594.32 kg/m3 | 744 kPa/K
546.26 K, Mass density=594.32 kg/m3 | 736 kPa/K
548.44 K, Mass density=476.25 kg/m3 | 146 kPa/K
549.77 K, Mass density=594.32 kg/m3 | 742 kPa/K
550.79 K, Mass density=552.58 kg/m3 | 152 kPa/K
551.43 K, Mass density=552.58 kg/m3 | 154 kPa/K
552.99 K, Mass density=456.58 kg/m3 | 160 kPa/K
553.25 K, Mass density=456.58 kg/m3 | 154 kPa/K
553.7 K, Mass density=376.89 kg/m3 | 161 kPa/K
554.5 K, Mass density=552.58 kg/m3 | 156 kPa/K
555.04 K, Mass density=552.58 kg/m3 | 159 kPa/K
556.55 K, Mass density=540.25 kg/m3 | 159 kPa/K
556.9 K, Mass density=456.58 kg/m3 | 158 kPa/K
558.82 K, Mass density=552.58 kg/m3 | 167 kPa/K
559.36 K, Mass density=476.25 kg/m3 | 160 kPa/K
560.44 K, Mass density=552.58 kg/m3 | 171 kPa/K
562 K, Mass density=552.58 kg/m3 | 654 kPa/K
562.66 K, Mass density=540.25 kg/m3 | 177 kPa/K
563.63 K, Mass density=342.18 kg/m3 | 162 kPa/K
563.98 K, Mass density=540.25 kg/m3 | 181 kPa/K
564.69 K, Mass density=540.25 kg/m3 | 185 kPa/K
565.22 K, Mass density=540.25 kg/m3 | 186 kPa/K
565.31 K, Mass density=540.25 kg/m3 | 187 kPa/K
566.19 K, Mass density=540.25 kg/m3 | 611 kPa/K
566.98 K, Mass density=540.25 kg/m3 | 606 kPa/K
568.48 K, Mass density=456.58 kg/m3 | 174 kPa/K
570.03 K, Mass density=476.25 kg/m3 | 179 kPa/K
570.81 K, Mass density=476.25 kg/m3 | 182 kPa/K
571.02 K, Mass density=376.89 kg/m3 | 175 kPa/K
571.35 K, Mass density=476.25 kg/m3 | 183 kPa/K
571.99 K, Mass density=456.58 kg/m3 | 187 kPa/K
572.95 K, Mass density=540.25 kg/m3 | 618 kPa/K
574.99 K, Mass density=476.25 kg/m3 | 191 kPa/K
575.79 K, Mass density=476.25 kg/m3 | 191 kPa/K
575.93 K, Mass density=120.03 kg/m3 | 148 kPa/K
576.8 K, Mass density=147.43 kg/m3 | 154 kPa/K
578.55 K, Mass density=456.58 kg/m3 | 197 kPa/K
578.75 K, Mass density=540.25 kg/m3 | 632 kPa/K
579.5 K, Mass density=476.25 kg/m3 | 198 kPa/K
579.85 K, Mass density=456.58 kg/m3 | 204 kPa/K
580.18 K, Mass density=476.25 kg/m3 | 203 kPa/K and 452 kPa/K
580.65 K, Mass density=476.25 kg/m3 | 456 kPa/K
580.9 K, Mass density=329 kg/m3 | 185 kPa/K
581.27 K, Mass density=476.25 kg/m3 | 457 kPa/K
581.59 K, Mass density=342.18 kg/m3 | 192 kPa/K
581.68 K, Mass density=320.33 kg/m3 | 186 kPa/K
581.77 K, Mass density=456.58 kg/m3 | 198 kPa/K
582.01 K, Mass density=120.03 kg/m3 | 155 kPa/K
582.45 K, Mass density=308.35 kg/m3 | 190 kPa/K
582.46 K, Mass density=307.35 kg/m3 | 190 kPa/K
582.55 K, Mass density=312.91 kg/m3 | 189 kPa/K
582.99 K, Mass density=540.25 kg/m3 | 639 kPa/K
583.68 K, Mass density=456.58 kg/m3 | 203 kPa/K
583.77 K, Mass density=160.07 kg/m3 | 168 kPa/K
584.72 K, Mass density=456.58 kg/m3 | 202 kPa/K
584.81 K, Mass density=120.03 kg/m3 | 155 kPa/K
584.88 K, Mass density=476.25 kg/m3 | 473 kPa/K
584.95 K, Mass density=456.58 kg/m3 | 206 kPa/K and 410 kPa/K
585.31 K, Mass density=120.03 kg/m3 | 154 kPa/K and 128 kPa/K
585.68 K, Mass density=147.43 kg/m3 | 166 kPa/K
586.08 K, Mass density=120.03 kg/m3 | 100 kPa/K
586.37 K, Mass density=120.03 kg/m3 | 96 kPa/K
587.24 K, Mass density=456.58 kg/m3 | 416 kPa/K
589.66 K, Mass density=305.44 kg/m3 | 194 kPa/K
590.01 K, Mass density=297.6 kg/m3 | 191 kPa/K
590.09 K, Mass density=303.47 kg/m3 | 191 kPa/K
590.18 K, Mass density=342.18 kg/m3 | 198 kPa/K
590.18 K, Mass density=376.89 kg/m3 | 201 kPa/K
590.7 K, Mass density=309.95 kg/m3 | 203 kPa/K
591.04 K, Mass density=308.35 kg/m3 | 200 kPa/K
591.13 K, Mass density=301.94 kg/m3 | 196 kPa/K
591.13 K, Mass density=329 kg/m3 | 194 kPa/K
591.32 K, Mass density=376.89 kg/m3 | 202 kPa/K
591.47 K, Mass density=160.07 kg/m3 | 177 kPa/K
591.47 K, Mass density=299.79 kg/m3 | 190 kPa/K
591.47 K, Mass density=320.33 kg/m3 | 199 kPa/K
591.73 K, Mass density=376.89 kg/m3 | 202 kPa/K
592.08 K, Mass density=312.91 kg/m3 | 191 kPa/K
592.42 K, Mass density=147.43 kg/m3 | 176 kPa/K
592.68 K, Mass density=307.35 kg/m3 | 194 kPa/K
592.94 K, Mass density=188.05 kg/m3 | 184 kPa/K
593.2 K, Mass density=147.43 kg/m3 | 175 kPa/K
593.54 K, Mass density=311.19 kg/m3 | 197 kPa/K
593.89 K, Mass density=147.43 kg/m3 | 148 kPa/K
594.06 K, Mass density=376.89 kg/m3 | 206 kPa/K
594.14 K, Mass density=147.43 kg/m3 | 168 kPa/K and 141 kPa/K
